Paper PMC8472993, “A Novel Glutathione S-Transferase Gtt2 Class (VpGSTT2) Is Found in the Genome of the AHPND/EMS Vibrio parahaemolyticus Shrimp Pathogen” (Toxins, 2021)

Experiments:
VpGSTT2 = molecular target: T1, VpGSTT2 (Vibrio parahaemolyticus, UniProt Q87HB4); experiment: spectrophotometric CDNB conjugation at […] nm, initial rates; format: biochemical; conditions: read-out: CDNB / Km; CDNB 0.3-2 mM, GSH 0.5 mM fixed; phosphate buffer (0.1 M NaH2PO4 pH 6.5), room temperature
T1 construct: gene VPA1051; Full coding region, synthetic E. coli-optimised gene in pET11a; C-terminal PreScission site and 6xHis tag (tag removal described); E. coli BL21(DE3) Gold
T1 sequence (Q87HB4 1-204): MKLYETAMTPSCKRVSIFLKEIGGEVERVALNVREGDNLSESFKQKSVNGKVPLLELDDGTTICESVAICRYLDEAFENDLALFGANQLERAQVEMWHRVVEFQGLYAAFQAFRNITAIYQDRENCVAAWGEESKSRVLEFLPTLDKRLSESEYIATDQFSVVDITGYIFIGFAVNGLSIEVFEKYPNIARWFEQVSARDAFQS

[1] = molecular target: Glutathione S-transferase class Gtt2 from Vibrio parahaemolyticus (VpGSTT2) (Vibrio parahaemolyticus (strain FIM-S1708+)); experiment: SEC; Superdex 75 HR 10/300 GL on an Äkta Pure, calibrated with molecular-weight standards (conalbumin, ovalbumin, carbonic anhydrase, ribonuclease A, aprotinin); VpGSTT2 eluted at 10.8 mL, corresponding to 48.2 kDa; protein dialysed against Tris-HCl, 150 mM NaCl, pH 7.2

| Compound | Km (VpGSTT2) [µM] | stoichiometry N [1] |
| --- | --- | --- |
| O=[N+]([O-])c1ccc(Cl)c([N+](=O)[O-])c1 [CDNB, 1-chloro-2,4-dinitrobenzene] | 1000 | – |
| Glutathione S-transferase class Gtt2 from Vibrio parahaemolyticus (VpGSTT2) (enzyme) | – | 2 |
